Laboratory results: ChEMBL document CHEMBL3045542, “A quantitative structure-activity relationship study of herbicidal analogues of alpha-hydroxy-substituted 3-benzylidenepyrrolidene-2,4-diones” (2006)

Key:
Format in all cases: functional
Echinochloa crus-galli [1] = test: Herbicidal activity against Echinochloa crus-galli (barnyard grass) assessed as inhibition of plant growth at 10 ug/mL by cup test
Digitaria sanguinalis [2] = test: Herbicidal activity against Digitaria sanguinalis (hairy crabgrass) assessed as inhibition of plant growth at 93.75 g/ha applied as pre-emergence treatment; conditions: Digitaria sanguinalis, pre-emergence
Digitaria sanguinalis [3] = test: Herbicidal activity against Digitaria sanguinalis (hairy crabgrass) assessed as inhibition of plant growth at 187.5 g/ha applied as pre-emergence treatment; conditions: Digitaria sanguinalis, pre-emergence
Echinochloa crus-galli [4] = test: Herbicidal activity against Echinochloa crus-galli (barnyard grass) assessed as inhibition of plant growth at 187.5 g/ha applied as pre-emergence treatment; conditions: Echinochloa crus-galli, pre-emergence
Echinochloa crus-galli [5] = test: Herbicidal activity against Echinochloa crus-galli (barnyard grass) assessed as inhibition of plant growth at 375 g/ha applied as pre-emergence treatment; conditions: Echinochloa crus-galli, pre-emergence
Echinochloa crus-galli [6] = test: Herbicidal activity against Echinochloa crus-galli (barnyard grass) assessed as inhibition of plant growth at 750 g/ha applied as pre-emergence treatment; conditions: Echinochloa crus-galli, pre-emergence
Digitaria sanguinalis [7] = test: Herbicidal activity against Digitaria sanguinalis (hairy crabgrass) assessed as inhibition of plant growth at 375 g/ha applied as pre-emergence treatment
Echinochloa crus-galli [8] = test: Herbicidal activity against Echinochloa crus-galli (barnyard grass) assessed as inhibition of plant growth at 93.75 g/ha applied as pre-emergence treatment; conditions: for inhibition at 93.75 g/ha: Echinochloa crus-galli, pre-emergence
Digitaria sanguinalis [9] = test: Herbicidal activity against Digitaria sanguinalis (hairy crabgrass) assessed as inhibition of plant growth at 750 g/ha applied as pre-emergence treatment; conditions: Digitaria sanguinalis, pre-emergence
[10] = tested as the Zn salt or complex

SMILES	inhibition at 10 µg/mL (Echinochloa crus-galli [1]) [%]	further results
CCCOc1ccc(/C(O)=C2\C(=O)CN(C(C)C)C2=O)cc1	73	–
CC(C)(C)c1ccc(/C(O)=C2\C(=O)CN(C(C)(C)C)C2=O)cc1	4	–
CCOc1ccc(/C(O)=C2\C(=O)CN(C(C)CC)C2=O)c(OC)c1 (configuration not stated)	68	–
COc1ccc(C/C(O)=C2/C(=O)CN(C(C)C)C2=O)cc1	5	–
COc1ccc(/C(O)=C2\C(=O)CN(Cc3ccccc3)C2=O)cc1	14	–
CC(C)N1CC(=O)/C(=C(/O)c2cccc(Oc3ccccc3)c2)C1=O	57	–
Cc1ccc(/C(O)=C2\C(=O)CN(C(C)(C)C)C2=O)cc1	36	–
CC(C)N1CC(=O)/C(=C(/O)c2ccc(OCc3ccccc3)cc2)C1=O	39	–
Cc1ccccc1/C(O)=C1\C(=O)CN(C(C)C)C1=O	77	–
CCOc1ccc(C(=O)C2=C(O)N(C(C)C)CCC2=O)cc1	15	–
Cc1ccccc1/C(O)=C1\C(=O)CN(Cc2ccccc2)C1=O	15	–
COc1ccc(C(=O)C2=C(O)N(C(C)C)CCC2=O)c(OC)c1	6	–
CS(=O)(=O)c1ccc(C(=O)C2C(=O)CCCC2=O)c(Cl)c1 [SULCOTRIONE]	–	inhibition at 93.75 g/ha (Digitaria sanguinalis [2]): 100%; inhibition at 187.5 g/ha (Digitaria sanguinalis [3]): 100%; inhibition at 187.5 g/ha (Echinochloa crus-galli [4]): 93%; inhibition at 375 g/ha (Echinochloa crus-galli [5]): 100%; inhibition at 750 g/ha (Echinochloa crus-galli [6]): 100%; inhibition at 375 g/ha (Digitaria sanguinalis [7]; Digitaria sanguinalis, pre-emergence): 100%; inhibition at 93.75 g/ha (Echinochloa crus-galli [8]): 70%; inhibition at 750 g/ha (Digitaria sanguinalis [9]): 100%
CCCc1ccc(/C(O)=C2\C(=O)CN(C(C)C)C2=O)cc1	27	–
Cc1ccc(/C(O)=C2\C(=O)CN(C(C)C)C2=O)cc1	77	–
COc1ccc(/C(O)=C2\C(=O)CN(C(C)(C)C)C2=O)cc1	10	inhibition at 187.5 g/ha (Echinochloa crus-galli [4]): 0%; inhibition at 375 g/ha (Echinochloa crus-galli [5]): 0%; inhibition at 750 g/ha (Echinochloa crus-galli [6]): 14%; inhibition at 93.75 g/ha (Echinochloa crus-galli [8]): 0%
O=C1CN(Cc2ccccc2)C(=O)/C1=C(\O)c1ccccc1	2	inhibition at 187.5 g/ha (Echinochloa crus-galli [4]): 0%; inhibition at 375 g/ha (Echinochloa crus-galli [5]): 0%; inhibition at 750 g/ha (Echinochloa crus-galli [6]): 0%; inhibition at 93.75 g/ha (Echinochloa crus-galli [8]): 0%
CCOc1ccc(/C([O-])=C2\C(=O)CN(C(C)C)C2=O)cc1.CCOc1ccc(/C([O-])=C2\C(=O)CN(C(C)C)C2=O)cc1.[Zn+2]	–	inhibition at 93.75 g/ha (Digitaria sanguinalis [2]; [10]): 8%; inhibition at 187.5 g/ha (Digitaria sanguinalis [3]; [10]): 64%; inhibition at 187.5 g/ha (Echinochloa crus-galli [4]; [10]): 96%; inhibition at 375 g/ha (Echinochloa crus-galli [5]; [10]): 100%; inhibition at 750 g/ha (Echinochloa crus-galli [6]; [10]): 100%; inhibition (INH) (Digitaria sanguinalis [7]): 100%; inhibition (INH) (Echinochloa crus-galli [8]): 57%; inhibition at 750 g/ha (Digitaria sanguinalis [9]; [10]): 100%
COc1ccccc1/C(O)=C1\C(=O)CN(Cc2ccccc2)C1=O	14	–
CCCCOc1cccc(/C(O)=C2\C(=O)CN(C(C)CC)C2=O)c1 (configuration not stated)	32	–
COc1cc(OC(C)C)ccc1/C(O)=C1\C(=O)CN(C(C)C)C1=O	57	–
CCOc1ccc(/C(O)=C2\C(=O)CN(C(C)C)C2=O)c(OCC)c1	26	–

SMILES	inhibition at 10 µg/mL (Echinochloa crus-galli [1]) [%]	further results
Cc1ccc(/C(O)=C2\C(=O)CN(Cc3ccccc3)C2=O)cc1	8	–
CCCCCc1ccc(/C(O)=C2\C(=O)CN(C)C2=O)cc1	16	–
COc1ccccc1/C(O)=C1\C(=O)CN(C(C)(C)C)C1=O	75	–
COc1ccc(/C(O)=C2\C(=O)C(C)N(C(C)C)C2=O)cc1 (configuration not stated)	4	–
CCCCOc1ccc(/C(O)=C2\C(=O)CN(C(C)C)C2=O)cc1	21	–
CCOc1ccc(/C(O)=C2\C(=O)CN(C(C)C)C2=O)c(OC)c1	69	–
Cc1ccccc1/C(O)=C1\C(=O)CN(C(C)(C)C)C1=O	64	–
CCOc1ccc(/C(O)=C2\C(=O)CN(C3CC3)C2=O)cc1	78	–
COc1ccccc1/C(O)=C1\C(=O)CN(C(C)C)C1=O	77	inhibition at 187.5 g/ha (Echinochloa crus-galli [4]): 0%; inhibition at 375 g/ha (Echinochloa crus-galli [5]): 28%; inhibition at 750 g/ha (Echinochloa crus-galli [6]): 73%; inhibition at 93.75 g/ha (Echinochloa crus-galli [8]): 0%
COc1ccc(/C(O)=C2\C(=O)C(C)N(C(C)C)C2=O)c(OC)c1 (configuration not stated)	25	–
CC(C)N1CC(=O)/C(=C(/O)c2ccc(Cl)cc2)C1=O	25	–
CCCCCc1ccc(/C(O)=C2\C(=O)CN(C(C)C)C2=O)cc1	6	–
Cc1ccc(/C(O)=C2\C(=O)CN(C(C)C)C2=O)c(C)c1	74	–
CCCc1ccc(/C(O)=C2\C(=O)CN(C(C)CC)C2=O)cc1 (configuration not stated)	18	–
C=CCOc1ccc(/C(O)=C2\C(=O)CN(C(C)C)C2=O)c(OC)c1	77	–
CCC(C)N1CC(=O)/C(=C(/O)c2cccc(Oc3ccccc3)c2)C1=O (configuration not stated)	58	–
Cc1cccc(/C(O)=C2\C(=O)CN(C)C2=O)c1	25	–
CC(C)N1CC(=O)/C(=C(/O)c2ccccc2Cl)C1=O	51	–
CCCCOc1ccc(/C(O)=C2\C(=O)CN(C(C)CC)C2=O)cc1 (configuration not stated)	28	–
CC(C)Oc1ccc(/C(O)=C2\C(=O)CN(C(C)C)C2=O)cc1	79	–
CCC(C)N1CC(=O)/C(=C(/O)c2cc(OC)c(OC)cc2OC)C1=O (configuration not stated)	18	–
C=CCOc1ccc(/C(O)=C2\C(=O)C(C)N(C(C)C)C2=O)c(OC)c1 (configuration not stated)	44	–

SMILES	inhibition at 10 µg/mL (Echinochloa crus-galli [1]) [%]	further results
CCCCOc1cccc(/C(O)=C2\C(=O)CN(C(C)C)C2=O)c1	47	–
COc1ccc(/C(O)=C2\C(=O)CN(C(C)C)C2=O)cc1	80	–
CC(C)Oc1cccc(/C(O)=C2\C(=O)CN(C(C)C)C2=O)c1	9	–
CN1CC(=O)/C(=C(/O)c2cccc(Oc3ccccc3)c2)C1=O	53	–
O=C1CN(C2CC2)C(=O)/C1=C(\O)c1cccc(Oc2ccccc2)c1	58	–
COc1ccc(/C(O)=C2\C(=O)CN(C3CC3)C2=O)cc1	62	–
CCC(C)N1CC(=O)/C(=C(/O)c2cc(C)cc(C)c2)C1=O (configuration not stated)	9	–
Cc1cccc(/C(O)=C2\C(=O)CN(C(C)(C)C)C2=O)c1	5	–
Cc1cccc(/C(O)=C2\C(=O)CN(Cc3ccccc3)C2=O)c1	12	–
COc1ccc(C(=O)C2=C(O)N(C(C)C)CCC2=O)cc1	0	–
CCC(C)N1CC(=O)/C(=C(/O)c2ccc(OC(C)C)cc2OC)C1=O (configuration not stated)	33	–
CC(C)c1ccc(/C(O)=C2\C(=O)CN(C(C)(C)C)C2=O)cc1	10	–
CCCCCc1ccc(/C(O)=C2\C(=O)CN(C3CC3)C2=O)cc1	5	–
COc1ccc(/C(O)=C2\C(=O)CN(C3CC3)C2=O)c(OC)c1	78	–
Cc1cc(C)cc(/C(O)=C2\C(=O)CN(C(C)C)C2=O)c1	22	–
COc1cc(OC(C)C)ccc1/C(O)=C1\C(=O)C(C)N(C(C)C)C1=O (configuration not stated)	9	–
CCC(C)N1CC(=O)/C(=C(/O)c2ccc(OC)cc2)C1=O (configuration not stated)	64	–
Cc1cccc(/C(O)=C2\C(=O)CN(C(C)C)C2=O)c1	49	–
CCOc1ccc(/C(O)=C2\C(=O)C(C)N(C(C)C)C2=O)c(OC)c1 (configuration not stated)	32	–
CCC(C)N1CC(=O)/C(=C(/O)c2ccc(OC(C)C)cc2)C1=O (configuration not stated)	46	–
CC(C)N1CC(=O)/C(=C(/O)c2ccc(C(C)(C)C)cc2)C1=O	28	–
CCC(C)N1CC(=O)/C(=C(/O)c2ccc(OC)c(OC)c2)C1=O (configuration not stated)	9	–
